Patent US20230031406A1, “COMPOUNDS AND COMPOSITIONS FOR TREATING CONDITIONS ASSOCIATED WITH NLRP ACTIVITY” (Novartis AG, priority 2018, published 2023)
pIC50: −log10 of the molar value. Like-named read-outs stand apart in the source and are kept apart here. Blank lines part the entries; values can stand above or below the compound they belong to.

Test system: PMA-differentiated THP-1 cells
Test: IL-1β production in PMA-differentiated THP-1 cells stimulated with gramicidin (hTHP-1 assay containing 2% fetal bovine serum; Procedures 1 and 2)
Format: cell-based, human
Conditions: 2% fetal bovine serum
Outline: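 Secreted IL-1β, read by HTRF, after gramicidin challenge (5 μM, 2 h) of THP-1 cells differentiated with PMA (20 ng/ml, 16-18 h) and plated at 50,000 cells/well in 2% FBS medium. Compounds, 0.0017-100 μM final with 0.37% DMSO, were added 1 h before stimulation.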

[1] = Homo sapiens, THP-1, Table B2, numeric bounds, read-out: hTHP-1 IC50
[2] = Table B3, hTHP-1 assay, class symbols, read-out: IC50
[3] = Homo sapiens, THP-1, Table B1, class symbols, read-out: Average IC50 of compounds in hTHP-1 assay: hTHP-1 IC50
[4] = Homo sapiens, THP-1, Table B3, hTHP-1 assay, class symbols, read-out: IC50
[5] = Table B1, class symbols, read-out: Average IC50 of compounds in hTHP-1 assay: hTHP-1 IC50
[6] = Homo sapiens, THP-1, Table B2, class symbols, read-out: hTHP-1 IC50
[7] = Table B4, class symbols, read-out: hTHP-1 IC50

SMILES: CCc1c(C(F)(F)F)nc2c(c1NC(=O)N=S(N)(=O)c1nn(C(F)F)cc1F)CCC2 (single isomer, unassigned) [Example 710, (S) or (R)-1-(difluoromethyl)-N′-((3-ethyl-2-(trifluoromethyl)-6,7-dihydro-5H-cyclopenta[b]pyridin-4-yl)carbamoyl)-4-fluoro-1H-pyrazole-3-sulfonimidamide]
pIC50 [2]: 4.52 to 5.30

SMILES: CC(C)(O)c1csc(S(N)(=O)=NC(=O)Nc2cc(C(F)(F)F)nc3c2CCC3)c1 (single isomer, unassigned) [Example 668, (S) or (R)-4-(2-hydroxypropan-2-yl)-N′-((2-(trifluoromethyl)-6,7-dihydro-5H-cyclopenta[b]pyridin-4-yl)carbamoyl)thiophene-2-sulfonimidamide]
pIC50 (Homo sapiens, THP-1, Table B3, hTHP-1 assay, numeric values, read-out: IC50): < 4.52

SMILES: CC(C)c1ccnc(C(C)C)c1NC(=O)N=S(N)(=O)c1cnc(C(C)(C)O)s1 (centres unmarked) [Compound 110, N′-((2,4-diisopropylpyridin-3-yl)carbamoyl)-2-(2-hydroxypropan-2-yl)thiazole-5-sulfonimidamide]
pIC50 [3]: 4.52 to 5.30

SMILES: CC(C)n1nc(S(N)(=O)=NC(=O)Nc2c3c(nc4c2CCC42CC2)CCC3)cc1CO (centres unmarked) [Example 595, 5-(Hydroxymethyl)-1-isopropyl-N′-((1′,5′,6′,7′-tetrahydro-2′H-spiro[cyclopropane-1,3′-dicyclopenta[b,e]pyridin]-8′-yl)carbamoyl)-1H-pyrazole-3-sulfonimidamide]
pIC50 [4]: 5.30 to 6.00

SMILES: CO[C@H]1COc2c(S(N)(=O)=NC(=O)Nc3c(C)c(C(F)(F)F)nc4c3CCC4)cnn2C1 (stereo partly drawn) [Example 564, (6R)-6-methoxy-N′-((3-methyl-2-(trifluoromethyl)-6,7-dihydro-5H-cyclopenta[b]pyridin-4-yl)carbamoyl)-6,7-dihydro-5H-pymzolo[5,1-b][1,3]oxazine-3-sulfonimidamide]
pIC50 [4]: 5.30 to 6.00

SMILES: CCn1ccc(S(N)(=O)=NC(=O)Nc2c3c(nc(C4CC4)c2C2CC2)CCC3)n1 (single isomer, unassigned) [Example 700, (S) or (R)-N′-((2,3-dicyclopropyl-6,7-dihydro-5H-cyclopenta[b]pyridin-4-yl)carbamoyl)-1-ethyl-1H-pyrazole-3-sulfonimidamide]
pIC50 [2]: 4.52 to 5.30

SMILES: Cc1c(C(F)(F)F)nc2c(c1NC(=O)N=S(N)(=O)c1cnn(C(F)F)c1)CCC2 (centres unmarked) [Compound 617, 1-(Difluoromethyl)-N′-((3-methyl-2-(trifluoromethyl)-6,7-dihydro-5H-cyclopenta[b]pyridin-4-yl)carbamoyl)-1H-pyrazole-4-sulfonimidamide]
pIC50 [6]: 4.52 to 5.30

SMILES: Cc1c(C(F)(F)F)nc2c(c1NC(=O)N=S(N)(=O)c1nn(-c3ccccc3)cc1F)CCC2 (single isomer, unassigned) [Example 783, (R) or (S)-4-fluoro-N′-((3-methyl-2-(trifluoromethyl)-6,7-dihydro-5H-cyclopenta [b]pyridin-4-yl)carbamoyl)-1-phenyl-1H-pyrazole-3-sulfonimidamide]
pIC50 [7]: 5.30 to 6.00

SMILES: NS(=O)(=NC(=O)Nc1c2c(nc3c1CCC3)CCC2)c1nn(C(F)F)cc1F (single isomer, unassigned) [Example 760, (S) or (R)-1-(difluoromethyl)-4-fluoro-N′-((1,2,3,5,6,7-hexahydrodicyclopenta[b,e]pyridin-8-yl)carbamoyl)-1H-pyrazole-3-sulfonimidamide]
pIC50 (Homo sapiens, THP-1, Table B4, numeric bounds, read-out: hTHP-1 IC50): < 4.52

SMILES: CC(C)(O)c1ncc(S(N)(=O)=NC(=O)Nc2c3c(nc4c2CCC4C(=O)O)CCC3)s1 (centres unmarked) [Compound 703, 8-(3-(Amino(2-(2-hydroxypropan-2-yl)thiazol-5-yl)(oxo)-λ^6-sulfanylidene)ureido)-1,2,3,5,6,7-hexahydrodicyclopenta[b,e] pyridine-3-carboxylic acid]
pIC50 [6]: 4.52 to 5.30

SMILES: CCn1cc(F)c(S(N)(=O)=NC(=O)Nc2c3c(nc(C(F)(F)F)c2-c2cccc(F)c2)CCC3)n1 (single isomer, unassigned) [Example 782, (S) or (R)-1-ethyl-4-fluoro-N′-((3-(3-fluorophenyl)-2-(trifluoromethyl)-6,7-dihydro-5H-cyclopenta[b]pyridin-4-yl)carbamoyl)-1H-pyrazole-3-sulfonimidamide]
pIC50 [7]: 6.00 to 6.70

The next lines start with the values.

pIC50 [1]: < 4.52
SMILES: CC(C)(O)c1cc(S(N)(=O)=NC(=O)Nc2c3c(nc4c2CCC4(C)C)CCC3)nn1-c1ccccc1 (single isomer, unassigned) [Compound 663a, (S) or (R)-N′-((3,3-dimethyl-1,2,3,5,6,7-hexahydrodicyclopenta [b,e]pyridin-8-yl)carbamoyl)-5-(2-hydroxypropan-2-yl)-1-phenyl-1H-pyrazole-3-sulfonimidamide]

pIC50 [5]: 5.30 to 6.00
SMILES: CC1CCc2c1nc1c(c2NC(=O)N=S(N)(=O)c2sc(C(C)(C)O)nc2CO)CCC1 (single isomer, unassigned) [Compound 168bb, (R,R) or (R,S)-4-(hydroxymethyl)-2-(2-hydroxypropan-2-yl)-N′-((3-methyl-1,2,3,5,6,7-hexahydrodicyclo-penta[b,c]pyridin-8-yl)carbamoyl)thiazole-5-sulfonimidamide]

pIC50 [6]: 5.30 to 6.00
SMILES: Cc1c(CC2CC2)nc2c(c1NC(=O)N=S(N)(=O)c1cc(C(C)(C)O)cs1)CCC2 (single isomer, unassigned) [Compound 665b, (R) or (S)-N′-((2-(cyclopropylmethyl)-3-methyl-6,7-dihydro-5H-cyclopenta[b]pyridin-4-yl)carbamoyl)-4-(2-hydroxypropan-2-yl)thiophene-2-sulfonimidamide]

pIC50 [3]: 5.30 to 6.00
SMILES: CC(C)n1ccc(S(N)(=O)=NC(=O)Nc2c3c(nc4c2CCC4)CCC3)n1 (single isomer, unassigned) [Compound 119a, (R) or (S)-N′-((1,2,3,5,6,7-hexahydrodicyclo-penta[b,e]pyridin-8-yl)carbamoyl)-1-isopropyl-1H-pyrazole-3-sulfonimidamide]

pIC50 (Homo sapiens, THP-1, Table B1, numeric bounds, read-out: Average IC50 of compounds in hTHP-1 assay: hTHP-1 IC50): < 4.62
SMILES: CC(C)(O)c1nc(CCO)c(S(N)(=O)=NC(=O)Nc2c3c(nc4c2CCC4)CCC3)s1 (single isomer, unassigned) [Compound 118b, (S) or (R)-N′-((1,2,3,5,6,7-hexahydrodicyclo-penta[b,e]pyridin-8-yl)carbamoyl)-4-(2-hydroxyethyl)-2-(2-hydroxypropan-2-yl)thiazole-5-sulfonimidamide]

pIC50 [5]: 6.00 to 6.70
SMILES: CC(C)(O)c1nc(CO)c(S(N)(=O)=NC(=O)Nc2c3c(nc4c2CCC4)CCC3)s1 (single isomer, unassigned) [Compound 150b, (R) or (S)-N′-((1,2,3,5,6,7-hexahydrodicyclo-penta[b,e]pyridin-8-yl)carbamoyl)-4-(hydroxymethyl)-2-(2-hydroxypropan-2-l)thiazole-5-sulfonimidamide]

pIC50 [4]: 6.00 to 6.70
SMILES: CC1(C)CCc2c1nc1c(c2NC(=O)N=S(N)(=O)c2sc(C(O)(CO)CO)nc2CO)CCC1 (centres unmarked) [Compound 985b]

pIC50 [1]: < 4.52
SMILES: CCn1ccc([S@@](N)(=O)=NC(=O)Nc2c3c(nc(C4CC4)c2C2CC2)CCC3)n1 [Compound 726a]

pIC50 (Table B2, class symbols, read-out: hTHP-1 IC50): 6.70 to 7.40
SMILES: CC1(C)CCc2c1nc1c(c2NC(=O)N=S(N)(=O)c2cnc(C(C)(O)CO)s2)CCC1 (single isomer, unassigned) [Compound 201e, (R, R) and (S, R) or (R, S) and (S, S)-2-(1,2-Dihydroxypropan-2-yl)-N′-((3,3-dimethyl-1,2,3.5.6.7-hexahydrodicyclopenta [b,e]pyridin-8-yl)carbamoyl)thiazole-5-sulfonimidamide]
